Patent publication US11542280B2, “Substituted pyrimidinium compounds and derivatives for combating animal pests” (BASF SE, priority 2017, dated 2023)

Experiments:
Assay type in all cases: in vivo
Dichromothrips corbetti = experiment: Orchid thrips floral-immersion test; settings: adult thrips, 72 hours after treatment, read-out: mortality in comparison with untreated controls
Description: (§1) General conditions: If not otherwise specified, the test solutions are prepared as follows:
(§2) The active compound is dissolved at the desired concentration in a mixture of 1:1 (vol:vol) distilled water: acetone. The test solution is prepared at the day of use.
(§3) Test solutions are prepared in general at different concentrations (wt/vol).
Dichromothrips corbetti adults used for bioassay are obtained from a colony maintained continuously under laboratory conditions. For testing purposes, the test compound is diluted in a 1:1 mixture of acetone:water (vol:vol), plus 0.01% vol/vol Alkamuls® EL 620 surfactant.
Thrips potency of each compound is evaluated by using a floral-immersion technique. Plastic petri dishes are used as test arenas. All petals of individual, intact orchid flowers are dipped into treatment solution and allowed to dry. Treated flowers are placed into individual petri dishes along with about 20 adult thrips. The petri dishes v then covered with lids. All test arenas are held under continuous light and a temperature of about 28° C. for duration of the assay. After 3 days, the numbers of live thrips are counted on each flower, and along inner walls of each petri dish. The percent mortality is recorded 72 hours after treatment.

Nephotettix virescens = experiment: Rice green leafhopper spray test on rice seedlings; settings: adults on sprayed rice seedlings, after 72 hours, read-out: mortality in comparison with untreated controls
Description: as §1, §2, §3
(§4) Rice seedlings are cleaned and washed 24 hours before spraying. The active compounds are formulated in 50:50 acetone:water (vol:vol), and 0.1% vol/vol surfactant (EL 620) is added. Potted rice seedlings are sprayed with 5 ml test solution, air dried, placed in cages and inoculated with 10 adults. Treated rice plants are kept at about 28-29° C. and relative humidity of about 50-60%. Percent mortality is recorded after 72 hours.

Nilaparvata lugens = experiment: Rice brown plant hopper spray test on rice seedlings; settings: adults on sprayed rice seedlings, after 72 hours, read-out: mortality in comparison with untreated controls
Description: as §1, §2, §3
as §4, with “(vol:vol)” for “(vol:vol),”

Measured: mortality at 500 ppm

Cn1c2[n+](c([O-])c(-c3ccccc3)c1=O)C(CC#N)CS2 (stereo not drawn) [Example C1, 3-(cyanomethyl)-8-methyl-7-oxo-6-phenyl-2,3-dihydrothiazolo[3,2-a]pyrimidin-4-ium-5-olate]
> 75%: all assays above
